# Data reported in patent publication US20240246977A1, “DEGRADATION OF BRUTON'S TYROSINE KINASE (BTK) BY CONJUGATION OF BTK INHIBITORS WITH E3 LIGASE LIGAND AND METHOD OF USE” (BeiGene Switzerland GmbH, priority 2021, published 2024).
# Tests used:
# HEK-293 cells = experiment: HEK-293 cytotoxicity detection (CellTiter-Glo); assay type: cell-based; conditions: Homo sapiens, 72 h, 72 h incubation, CellTiter-Glo luminescence, read-out: HEK293
# Procedure, shortened: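 HEK-293 cells exposed 72 h to 8 compounds doses (4-fold dilutions, top stock 5 mM at 500×) in 0.2% DMSO. Viability by CellTiter-Glo luminescence; inhibition normalised to DMSO high control and low control, IC50 from four-parameter curve fit.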
# BTK = BTK (Homo sapiens, UniProt Q06187); experiment: BTK cell degradation in TMD-8 cells, HTRF assay; assay type: cell-based; parameters: endogenous in cells; host or cells: TMD-8 cells; conditions: 6 h treatment, IC50 (DC50) of BTK degradation
# BTK, sequence (Q06187 whole entry): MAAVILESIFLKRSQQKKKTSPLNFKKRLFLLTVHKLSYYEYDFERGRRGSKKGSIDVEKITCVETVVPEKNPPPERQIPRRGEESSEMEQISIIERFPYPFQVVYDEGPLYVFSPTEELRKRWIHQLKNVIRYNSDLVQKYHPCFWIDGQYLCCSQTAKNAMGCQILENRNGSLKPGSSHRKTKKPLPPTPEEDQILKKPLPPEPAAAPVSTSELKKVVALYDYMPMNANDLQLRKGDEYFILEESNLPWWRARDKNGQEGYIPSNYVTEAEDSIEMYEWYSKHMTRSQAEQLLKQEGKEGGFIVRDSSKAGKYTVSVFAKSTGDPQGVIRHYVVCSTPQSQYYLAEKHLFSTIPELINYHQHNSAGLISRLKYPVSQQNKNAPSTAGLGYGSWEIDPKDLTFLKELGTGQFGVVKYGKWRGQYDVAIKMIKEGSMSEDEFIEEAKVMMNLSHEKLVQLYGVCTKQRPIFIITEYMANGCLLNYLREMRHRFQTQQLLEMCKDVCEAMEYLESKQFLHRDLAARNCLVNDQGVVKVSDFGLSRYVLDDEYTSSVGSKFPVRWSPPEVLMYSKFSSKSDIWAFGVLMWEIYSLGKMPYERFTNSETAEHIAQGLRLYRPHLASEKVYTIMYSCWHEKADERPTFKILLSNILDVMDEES
# Procedure, shortened: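 TMD-8 cells treated 6 h with 8-dose series (6-fold dilutions, 0.2% DMSO final), then lysed and BTK quantified by HTRF (337/665/620 nm) after overnight antibody incubation at room temperature. Degradation normalized to DMSO high and low controls; DC50 and Dmax from four-parameter fit.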
SMILES,IC50 (HEK-293 cells) [nM],DC50 (BTK) [nM]
"Cc1c(C(=O)Nc2cscn2)ccc(-c2nn3c(c2C(N)=O)Nc2ccc(N4CCN(CC5CCN(c6cccc(CN7CCC(=O)NC7=O)c6)CC5)CC4)cc2CC3)c1F [Example B99, 7-(4-((1-(3-((2,4-dioxotetrahydropyrimidin-1(2H)-yl)methyl)phenyl)piperidin-4-yl)methyl)piperazin-1-yl)-2-(2-fluoro-3-methyl-4-(thiazol-4-ylcarbamoyl)phenyl)-9,10-dihydro-4H-benzo[d]pyrazolo[1,5-a][1,3]diazepine-3-carboxamide]",> 10000,2.72
"Cc1c(C(=O)Nc2cscn2)ccc(-c2nn3c(c2C(N)=O)Nc2ccc(N4CCN(C5CC(c6ccc(N[C@@H]7CCC(=O)NC7=O)cc6)C5)CC4)cc2CC3)c1F (stereo partly drawn) [Example B100, (R)-7-(4-(3-(4-((2,6-dioxopiperidin-3-yl)amino)phenyl)cyclobutyl)piperazin-1-yl)-2-(2-fluoro-3-methyl-4-(thiazol-4-ylcarbamoyl)phenyl)-9,10-dihydro-4H-benzo[d]pyrazolo[1,5-a][1,3]diazepine-3-carboxamide]",34.1,2.14
"Cc1c(C(=O)Nc2cscn2)ccc(-c2nn3c(c2C(N)=O)Nc2ccc(N4CCN(C5CC(c6ccc(N[C@H]7CCC(=O)NC7=O)cc6)C5)CC4)cc2CC3)c1F (stereo partly drawn) [Example B101, (S)-7-(4-(3-(4-((2,6-dioxopiperidin-3-yl)amino)phenyl)cyclobutyl)piperazin-1-yl)-2-(2-fluoro-3-methyl-4-(thiazol-4-ylcarbamoyl)phenyl)-9,10-dihydro-4H-benzo[d]pyrazolo[1,5-a][1,3]diazepine-3-carboxamide]",32.3,2.42
"Cc1c(C(=O)Nc2cscn2)ccc(-c2nn3c(c2C(N)=O)Nc2ccc(N4CCN(C(=O)C5CCN(c6ccc(N7CCC(=O)NC7=O)cc6)CC5)CC4)cc2CC3)c1F [Example B102, 7-(4-(1-(4-(2,4-dioxotetrahydropyrimidin-1(2H)-yl)phenyl)piperidine-4-carbonyl)piperazin-1-yl)-2-(2-fluoro-3-methyl-4-(thiazol-4-ylcarbamoyl)phenyl)-9,10-dihydro-4H-benzo[d]pyrazolo[1,5-a][1,3]diazepine-3-carboxamide]",> 10000,1.1
"Cc1c(C(=O)Nc2cscn2)ccc(-c2nn3c(c2C(N)=O)Nc2ccc(N4CCN(C[C@H]5CCN(c6ccc(N7CCC(=O)NC7=O)cc6)C5)CC4)cc2CC3)c1F [Example B103, (R)-7-(4-((1-(4-(2,4-dioxotetrahydropyrimidin-1(2H)-yl)phenyl)pyrrolidin-3-yl)methyl)piperazin-1-yl)-2-(2-fluoro-3-methyl-4-(thiazol-4-ylcarbamoyl)phenyl)-9,10-dihydro-4H-benzo[d]pyrazolo[1,5-a][1,3]diazepine-3-carboxamide]",> 10000,3.3
"COc1ccccc1C(=O)NCc1ccc(-c2nn3c(c2C(N)=O)Nc2ccc(N4CCN(CC5CCN(c6ccc(N7CCC(=O)NC7=O)cc6)CC5)CC4)cc2CC3)cc1 [Example C1, 7-(4-((1-(4-(2,4-dioxotetrahydropyrimidin-1(2H)-yl)phenyl)piperidin-4-yl)methyl)piperazin-1-yl)-2-(4-((2-methoxybenzamido)methyl)phenyl)-9,10-dihydro-4H-benzo[d]pyrazolo[1,5-a][1,3]diazepine-3-carboxamide]",> 10000,0.758
"COc1ccc(C)cc1C(=O)NCc1ccc(-c2nn3c(c2C(N)=O)Nc2ccc(N4CCN(CC5CCN(c6ccc(N7CCC(=O)NC7=O)cc6)CC5)CC4)cc2CC3)cc1 [Example C2, 7-(4-((1-(4-(2,4-dioxotetrahydropyrimidin-1(2H)-yl)phenyl)piperidin-4-yl)methyl)piperazin-1-yl)-2-(4-((2-methoxy-5-methylbenzamido)methyl)phenyl)-9,10-dihydro-4H-benzo[d]pyrazolo[1,5-a][1,3]diazepine-3-carboxamide]",> 10000,0.52
"COc1ccc(F)cc1C(=O)NCc1ccc(-c2nn3c(c2C(N)=O)Nc2ccc(N4CCN(CC5CCN(c6ccc(N7CCC(=O)NC7=O)cc6)CC5)CC4)cc2CC3)cc1 [Example C3, 7-(4-((1-(4-(2,4-dioxotetrahydropyrimidin-1(2H)-yl)phenyl)piperidin-4-yl)methyl)piperazin-1-yl)-2-(4-((5-fluoro-2-methoxybenzamido)methyl)phenyl)-9,10-dihydro-4H-benzo[d]pyrazolo[1,5-a][1,3]diazepine-3-carboxamide]",> 10000,0.343
"COc1ccc2ccccc2c1C(=O)NCc1ccc(-c2nn3c(c2C(N)=O)Nc2ccc(N4CCN(CC5CCN(c6ccc(N7CCC(=O)NC7=O)cc6)CC5)CC4)cc2CC3)cc1 [Example C4, 7-(4-((1-(4-(2,4-dioxotetrahydropyrimidin-1(2H)-yl)phenyl)piperidin-4-yl)methyl)piperazin-1-yl)-2-(4-((2-methoxy-1-naphthamido)methyl)phenyl)-9,10-dihydro-4H-benzo[d]pyrazolo[1,5-a][1,3]diazepine-3-carboxamide]",> 10000,0.282
"COc1ccccc1C(=O)NC(C)c1ccc(-c2nn3c(c2C(N)=O)Nc2ccc(N4CCN(CC5CCN(c6ccc(N7CCC(=O)NC7=O)cc6)CC5)CC4)cc2CC3)cc1 (stereo not shown) [Example C5, 7-(4-((1-(4-(2,4-dioxotetrahydropyrimidin-1(2H)-yl)phenyl)piperidin-4-yl)methyl)piperazin-1-yl)-2-(4-(1-(2-methoxybenzamido)ethyl)phenyl)-9,10-dihydro-4H-benzo[d]pyrazolo[1,5-a][1,3]diazepine-3-carboxamide]",> 10000,3.82
"COc1ccc(Cl)cc1C(=O)NCc1ccc(-c2nn3c(c2C(N)=O)Nc2ccc(N4CCN(CC5CCN(c6ccc(N7CCC(=O)NC7=O)cc6)CC5)CC4)cc2CC3)cc1C [Example C6, 2-(4-((5-chloro-2-methoxybenzamido)methyl)-3-methylphenyl)-7-(4-((1-(4-(2,4-dioxotetrahydropyrimidin-1(2H)-yl)phenyl)piperidin-4-yl)methyl)piperazin-1-yl)-9,10-dihydro-4H-benzo[d]pyrazolo[1,5-a][1,3]diazepine-3-carboxamide]",> 10000,3.4
"Cc1cc(-c2nn3c(c2C(N)=O)Nc2ccc(N4CCN(CC5CCN(c6ccc(N7CCC(=O)NC7=O)cc6)CC5)CC4)cc2CC3)ccc1CNC(=O)c1noc(C(C)(C)C)n1 [Example C7, 5-(tert-butyl)-N-(4-(3-carbamoyl-7-(4-((1-(4-(2,4-dioxotetrahydropyrimidin-1(2H)-yl)phenyl)piperidin-4-yl)methyl)piperazin-1-yl)-9,10-dihydro-4H-benzo[d]pyrazolo[1,5-a][1,3]diazepin-2-yl)-2-methylbenzyl)-1,2,4-oxadiazole-3-carboxamide]",> 10000,22.7
"Cc1cc(-c2nn3c(c2C(N)=O)Nc2ccc(N4CCN(CC5CCN(c6ccc(N7CCC(=O)NC7=O)cc6)CC5)CC4)cc2CC3)ccc1CNC(=O)c1nc(C(C)(C)C)no1 [Example C8, 3-(tert-butyl)-N-(4-(3-carbamoyl-7-(4-((1-(4-(2,4-dioxotetrahydropyrimidin-1(2H)-yl)phenyl)piperidin-4-yl)methyl)piperazin-1-yl)-9,10-dihydro-4H-benzo[d]pyrazolo[1,5-a][1,3]diazepin-2-yl)-2-methylbenzyl)-1,2,4-oxadiazole-5-carboxamide]",> 10000,15.6
"Cc1cc(-c2nn3c(c2C(N)=O)Nc2ccc(N4CCN(CC5CCN(c6ccc(N7CCC(=O)NC7=O)cc6)CC5)CC4)cc2CC3)ccc1CNC(=O)c1ccn(C(C)(C)C)n1 [Example C9, 2-(4-((1-(tert-butyl)-1H-pyrazole-3-carboxamido)methyl)-3-methylphenyl)-7-(4-((1-(4-(2,4-dioxotetrahydropyrimidin-1(2H)-yl)phenyl)piperidin-4-yl)methyl)piperazin-1-yl)-9,10-dihydro-4H-benzo[d]pyrazolo[1,5-a][1,3]diazepine-3-carboxamide]",> 10000,54.2
"COc1ccc2ccccc2c1C(=O)NCc1ccc(-c2nn3c(c2C(N)=O)Nc2ccc(N4CCN(CC5CCN(c6ccc(N7CCC(=O)NC7=O)cc6)CC5)CC4)cc2CC3)cc1C [Example C10, 7-(4-((1-(4-(2,4-dioxotetrahydropyrimidin-1(2H)-yl)phenyl)piperidin-4-yl)methyl)piperazin-1-yl)-2-(4-((2-methoxy-1-naphthamido)methyl)-3-methylphenyl)-9,10-dihydro-4H-benzo[d]pyrazolo[1,5-a][1,3]diazepine-3-carboxamide]",> 10000,10.1
"COc1ccc(C(F)(F)F)cc1C(=O)NCc1ccc(-c2nn3c(c2C(N)=O)Nc2ccc(N4CCN(CC5CCN(c6ccc(N7CCC(=O)NC7=O)cc6)CC5)CC4)cc2CC3)cc1C [Example C11, 7-(4-((1-(4-(2,4-dioxotetrahydropyrimidin-1(2H)-yl)phenyl)piperidin-4-yl)methyl)piperazin-1-yl)-2-(4-((2-methoxy-5-(trifluoromethyl)benzamido)methyl)-3-methylphenyl)-9,10-dihydro-4H-benzo[d]pyrazolo[1,5-a][1,3]diazepine-3-carboxamide]",> 10000,3.36
"CC(C)(C)c1noc(C(=O)NCc2ccc(-c3nn4c(c3C(N)=O)Nc3ccc(N5CCN(CC6CCN(c7ccc(N8CCC(=O)NC8=O)cc7)CC6)CC5)cc3CC4)cc2)n1 [Example C12, 3-(tert-butyl)-N-(4-(3-carbamoyl-7-(4-((1-(4-(2,4-dioxotetrahydropyrimidin-1(2H)-yl)phenyl)piperidin-4-yl)methyl)piperazin-1-yl)-9,10-dihydro-4H-benzo[d]pyrazolo[1,5-a][1,3]diazepin-2-yl)benzyl)-1,2,4-oxadiazole-5-carboxamide]",> 10000,1.82
